Experimental data: publication PMC6083370, “Influence of OATPs on Hepatic Disposition of Erlotinib Measured With Positron Emission Tomography” (Clinical Pharmacology and Therapeutics, 2017)
Values joined by “and” are separate entries in the source; they are usually repeats but may differ in a detail not shown here. Equal values may be shown once. Read-outs that look alike come from different tables or passages of the source.

Key:
[1] = target: T1, OATP2B1 (SLCO2B1) (Homo sapiens, UniProt O94956); details: for Michaelis constant (K m) of the saturable component of OATP2B1‐specific uptake: 7.5 min, erlotinib 0.05–2.05 μM, ± standard error; for effect on [^11C]erlotinib uptake in OATP2B1 overexpressing cells: erlotinib 1 μM, cyclosporine A 10 μM, rifampicin 100 μM, 5 min
T1 sequence (O94956 1-709): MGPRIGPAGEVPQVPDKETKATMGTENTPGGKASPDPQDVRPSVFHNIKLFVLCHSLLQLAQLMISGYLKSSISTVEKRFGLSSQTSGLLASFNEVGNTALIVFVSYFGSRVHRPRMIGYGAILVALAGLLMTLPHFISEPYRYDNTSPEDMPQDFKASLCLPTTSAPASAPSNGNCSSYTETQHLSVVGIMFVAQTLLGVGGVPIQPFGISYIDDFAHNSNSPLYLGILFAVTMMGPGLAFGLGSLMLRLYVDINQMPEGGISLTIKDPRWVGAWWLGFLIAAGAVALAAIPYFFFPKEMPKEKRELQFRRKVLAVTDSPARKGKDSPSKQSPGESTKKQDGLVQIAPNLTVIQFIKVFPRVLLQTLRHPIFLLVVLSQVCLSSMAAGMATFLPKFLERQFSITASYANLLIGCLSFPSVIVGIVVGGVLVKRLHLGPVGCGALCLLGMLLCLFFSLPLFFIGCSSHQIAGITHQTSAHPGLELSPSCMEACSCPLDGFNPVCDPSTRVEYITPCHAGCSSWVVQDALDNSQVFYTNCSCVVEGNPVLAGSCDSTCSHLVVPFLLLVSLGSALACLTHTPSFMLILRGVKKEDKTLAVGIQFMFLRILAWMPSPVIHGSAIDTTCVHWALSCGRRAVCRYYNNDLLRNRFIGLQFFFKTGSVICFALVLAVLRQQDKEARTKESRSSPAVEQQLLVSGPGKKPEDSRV
Method: OATP overexpression was confirmed by Western blotting. Functionality of the OATPs was verified by [^3H]estrone-3-sulfate uptake experiments. A431 cells transfected with the empty vector were used as a negative control. All cell lines were cultured in Dulbecco's modified eagle medium supplemented with 10% fetal bovine serum, 2 mM L-glutamine, 100 units/mL penicillin and 100 µg/mL streptomycin. […] On the day of the experiment, growth medium was aspired and cells were washed with pre-warmed transport buffer (Hank's balanced salt solution supplemented with 10 mM N-2-hydroxyethylpiperazine-N-2-ethane sulfonic acid). […] Then the drug solutions were removed and cells were washed with pre-warmed transport buffer. […] For time dependency experiments, pre-warmed transport buffer was added and cells were incubated for 30 min. […] For concentration dependency experiments, pre-warmed transport buffer was added and cells were incubated for 30 min. […] In all experiments, cell count was determined on separate 24-well tissue culture plates before or after each experiment. In all experiments, radiotracer solutions were aspired following incubation and cells were washed twice with ice-cold transport buffer. […] Each inhibition experiment was performed 2 times with 3 technical replicates each and radioactivity in cells was corrected for radioactive decay, normalized to 10^6 cells and expressed as percent of vector control (% control). The time dependency experiment was performed once with 3 technical replicates and radioactivity in cells was corrected for radioactive decay and expressed as percent of applied dose per 10^6 cells (%AD/10^6 cells). The concentration dependency experiment was performed once with 3 technical replicates and radioactivity in cells was corrected for radioactive decay. Kinetic parameters were determined using a previously described method.^2 In brief, cellular radioactivity uptake was converted into units of pmol/min/10^6 cells. OATP2B1-specific uptake of erlotinib was determined by subtracting the uptake into cells transfected with the empty vector from the uptake into cells transfected with OATP2B1. The following equation was used to obtain kinetic parameters:
where v is the uptake velocity of erlotinib (pmol/min/10^6 cells), S is the erlotinib concentration in the transport buffer (µM), Km is the Michaelis constant (µM), Vmax is the maximum uptake velocity (pmol/min/10^6 cells), and Pdif is the non-saturable uptake clearance (µL/min/10^6 cells). Curve fitting was performed by the non-linear regression method with a modified Michaelis-Menten model according to equation 1 using Prism 6.0 software (GraphPad Software).

[2] = set-up: method as in PMID 23887590; details: following ritonavir pretreatment; cited from earlier work
[3] = test system: OCT1 (SLC22A1); set-up: method as in PMID 21088257; details: cited from earlier work
[4] = test system: organic cation transporter 2 (OCT2/SLC22A2); set-up: method as in PMID 20304939, PMID 21088257; details: cited from earlier work
[5] = test system: MRP4; set-up: method as in PMID 21088257; details: cited from earlier work
[6] = Plasma pharmacokinetics of unlabeled erlotinib after 300 mg oral dose (HPLC-UV); type: in vivo, human
Method: One female and five male healthy volunteers (mean age: 27 ± 6 years, mean weight: 79 ± 7 kg) were enrolled in the study. […] Radioactivity in the upper abdominal region was measured over 90 min by employing a consecutive frame sequence of 1 × 15, 3 × 5, 3 × 10, 2 × 30, 3 × 60, 2 × 150, and 16 × 300 sec. […] For both PET scans, subjects were asked to fast for at least 6 h before radiotracer injection. Approximately 3 h before start of the second PET scan, an oral dose of 300 mg erlotinib (Tarceva, Roche Pharma, Nutley, NJ; two 150‐mg tablets) was administered. […] Blood samples were centrifuged to obtain plasma, which was kept at −80°C until analysis of erlotinib concentrations.
Aliquots of blood and plasma were measured for radioactivity in a gamma‐counter, which was cross‐calibrated with the PET camera. […] The concentration of unlabeled erlotinib in plasma was determined by high‐performance liquid chromatography with ultraviolet detection (Supplementary Methods). Pharmacokinetic parameters of erlotinib in plasma were determined with the Kinetica 2000 software package, v. 3.0 (InnaPhase).
The concentration of unlabeled erlotinib in plasma was determined by high-performance liquid chromatography (HPLC) using a Dionex UltiMate 3000 system (Dionex Corp., Sunnyvale, USA) with ultraviolet (UV) detection at 331 nm. After the addition of 600 µL ice-cold methanol to 200 µL of plasma, the samples were centrifuged (13,000 g for 5 min) and 80 µL of clear supernatant was injected onto a Hypersil BDS-C18 column (5 µm, 250 x 4.6 mm I.D., Thermo Fisher Scientific, Inc, Waltham, USA), preceded by a Hypersil BDS-C18 pre-column (5 µm, 10 x 4.6 mm I.D.) and kept at 40°C. The mobile phase consisted of a continuous gradient mixed from aqueous ammonium acetate buffer (10 mM, pH = 5.0) (solvent A) and acetonitrile (solvent B) at a flow rate of 1.0 mL/min.

[7] = test system: breast cancer resistance protein (BCRP/ABCG2); set-up: method as in PMID 20304939, PMID 21088257; details: cited from earlier work
[8] = target: T2, OATP1B1 (SLCO1B1) (Homo sapiens, UniProt Q9Y6L6); details: erlotinib 1 μM, cyclosporine A 10 μM, rifampicin 100 μM; 5 min
T2 sequence (Q9Y6L6 1-691): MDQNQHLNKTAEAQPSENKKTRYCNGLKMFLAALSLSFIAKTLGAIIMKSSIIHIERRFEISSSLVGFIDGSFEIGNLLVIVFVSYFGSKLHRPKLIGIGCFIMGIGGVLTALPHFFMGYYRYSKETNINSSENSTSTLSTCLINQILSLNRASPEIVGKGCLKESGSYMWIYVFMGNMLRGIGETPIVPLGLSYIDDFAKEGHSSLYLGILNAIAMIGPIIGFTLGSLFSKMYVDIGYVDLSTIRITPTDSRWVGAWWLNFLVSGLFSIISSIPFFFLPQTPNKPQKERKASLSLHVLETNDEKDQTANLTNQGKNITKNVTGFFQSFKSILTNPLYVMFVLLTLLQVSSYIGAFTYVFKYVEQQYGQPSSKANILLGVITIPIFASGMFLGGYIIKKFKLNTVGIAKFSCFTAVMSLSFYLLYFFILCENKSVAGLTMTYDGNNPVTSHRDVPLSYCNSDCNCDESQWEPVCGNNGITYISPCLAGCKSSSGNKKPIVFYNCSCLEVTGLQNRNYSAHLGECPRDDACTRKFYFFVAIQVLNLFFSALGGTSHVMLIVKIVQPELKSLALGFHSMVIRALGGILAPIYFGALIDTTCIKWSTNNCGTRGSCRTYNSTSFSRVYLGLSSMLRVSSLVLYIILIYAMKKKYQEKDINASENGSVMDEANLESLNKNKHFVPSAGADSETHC
Method: (§1) A431 cells transfected with the empty vector were used as a negative control. All cell lines were cultured in Dulbecco's modified eagle medium supplemented with 10% fetal bovine serum, 2 mM L-glutamine, 100 units/mL penicillin and 100 µg/mL streptomycin. […] On the day of the experiment, growth medium was aspired and cells were washed with pre-warmed transport buffer (Hank's balanced salt solution supplemented with 10 mM N-2-hydroxyethylpiperazine-N-2-ethane sulfonic acid). […] Then the drug solutions were removed and cells were washed with pre-warmed transport buffer. […] For time dependency experiments, pre-warmed transport buffer was added and cells were incubated for 30 min. […] In all experiments, cell count was determined on separate 24-well tissue culture plates before or after each experiment. […] Each inhibition experiment was performed 2 times with 3 technical replicates each and radioactivity in cells was corrected for radioactive decay, normalized to 10^6 cells and expressed as percent of vector control (% control). The time dependency experiment was performed once with 3 technical replicates and radioactivity in cells was corrected for radioactive decay and expressed as percent of applied dose per 10^6 cells (%AD/10^6 cells). The concentration dependency experiment was performed once with 3 technical replicates and radioactivity in cells was corrected for radioactive decay. […]

[9] = test system: OATP2B1; details: read-out: IC50 for OATP2B1 inhibition; cited from earlier work
[10] = test system: OATP1B1; details: read-out: IC50 for inhibition of OATP1B1; cited from earlier work
[11] = test system: OATP1B1; details: cited from earlier work
[12] = test system: OATP1B3; details: cited from earlier work
[13] = target: T3, OATP1B3 (SLCO1B3) (Homo sapiens, UniProt Q9NPD5); details: erlotinib 1 μM, cyclosporine A 10 μM, rifampicin 100 μM; 5 min
T3 sequence (Q9NPD5 1-702): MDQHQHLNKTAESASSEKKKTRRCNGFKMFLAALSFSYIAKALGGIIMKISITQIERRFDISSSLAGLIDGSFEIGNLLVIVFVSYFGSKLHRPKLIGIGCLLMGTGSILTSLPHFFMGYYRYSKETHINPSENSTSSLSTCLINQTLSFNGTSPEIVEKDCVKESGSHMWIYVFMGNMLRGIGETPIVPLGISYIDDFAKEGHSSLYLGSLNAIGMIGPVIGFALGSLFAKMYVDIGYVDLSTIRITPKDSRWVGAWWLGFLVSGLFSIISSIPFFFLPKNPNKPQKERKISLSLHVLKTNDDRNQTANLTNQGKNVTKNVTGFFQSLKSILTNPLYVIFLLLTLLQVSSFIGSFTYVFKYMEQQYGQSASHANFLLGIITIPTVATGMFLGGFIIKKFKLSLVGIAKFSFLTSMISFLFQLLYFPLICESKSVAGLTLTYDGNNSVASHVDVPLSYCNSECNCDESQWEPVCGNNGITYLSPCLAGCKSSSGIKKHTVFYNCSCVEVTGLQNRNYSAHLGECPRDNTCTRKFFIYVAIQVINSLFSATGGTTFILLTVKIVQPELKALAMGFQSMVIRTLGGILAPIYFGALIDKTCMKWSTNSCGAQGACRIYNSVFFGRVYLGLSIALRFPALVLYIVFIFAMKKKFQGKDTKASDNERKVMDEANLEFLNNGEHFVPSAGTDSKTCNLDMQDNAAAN
Method: as §1

[14] = test system: organic anion transporter 3 (OAT3/SLC22A8); set-up: method as in PMID 20304939, PMID 21088257; details: cited from earlier work
[15] = Tolerability of study medication in healthy volunteers; type: in vivo, human; details: microdose (<10 μg) i.v. and 300 mg oral
Method: One female and five male healthy volunteers (mean age: 27 ± 6 years, mean weight: 79 ± 7 kg) were enrolled in the study. […] Radioactivity in the upper abdominal region was measured over 90 min by employing a consecutive frame sequence of 1 × 15, 3 × 5, 3 × 10, 2 × 30, 3 × 60, 2 × 150, and 16 × 300 sec. In parallel to PET imaging, serial blood samples were drawn from the radial artery for the first 2.5 min, followed by samples at 3.5, 5, 10, 20, 30, 40, 60, and 80 min after radiotracer injection. For both PET scans, subjects were asked to fast for at least 6 h before radiotracer injection. Approximately 3 h before start of the second PET scan, an oral dose of 300 mg erlotinib (Tarceva, Roche Pharma, Nutley, NJ; two 150‐mg tablets) was administered. Ten blood samples were collected at baseline and hourly for 8 h and at ∼21 h after erlotinib intake. Blood samples were centrifuged to obtain plasma, which was kept at −80°C until analysis of erlotinib concentrations.

[16] = cited from earlier work
[17] = test system: OAT2 (SLC22A7); set-up: method as in PMID 21088257; details: cited from earlier work
[18] = test system: P‐glycoprotein (Pgp/ABCB1); set-up: method as in PMID 20304939, PMID 21088257; details: cited from earlier work
[19] = test system: OATP1B3; details: read-out: IC50 for inhibition of OATP1B3; cited from earlier work
[20] = test system: OATP2B1; set-up: method as in PMID 28005438; details: cited from earlier work
[21] = set-up: method as in PMID 27036206; details: combination of erlotinib with rosuvastatin, 24 patients; cited from earlier work
[22] = 3 h after oral dosing, individual subjects
[23] = 4 h after oral dosing, individual subjects
[24] = individual subjects, oral 300 mg

C#Cc1cccc(Nc2ncnc3cc(OCCOC)c(OCCO[11CH3])cc23)c1 [[^11C]erlotinib]
Michaelis constant (K m) of the saturable component of OATP2B1‐specific uptake [1]: 0.324 ± 0.182 µM
incubation time at maximum difference in uptake between OATP2B1 cells and the other cells ([1]; <0.1 μM, time dependency experiment): 10 to 15 min

Cc1cc(C)c(NC(=O)CN(CC(=O)[O-])CC(=O)[O-])c(C)c1Br.Cc1cc(C)c(NC(=O)CN(CC(=O)[O-])CC(=O)[O-])c(C)c1Br.[99Tc+4] [[^99mTc]mebrofenin]
increase in the efflux clearance from liver to blood [2]: 517%
reduction in CL uptake [2]: 46%

C#Cc1cccc(Nc2ncnc3cc(OCCOC)c(OCCOC)cc23)c1 [erlotinib]
substrate of OCT1 [3]: not a substrate
substrate of OCT2 [4]: substrate
transport by MRP4 [5]: not to be transported
CPET, plasma concentration at time of the PET scan [6, 22]: 3.30 µM and 4.12 µM and 4.73 µM and 4.91 µM and 2.66 µM and 4.61 µM
CPET,unbound [6, 22]: 0.12 µM and 0.20 µM and 0.10, 0.10 µM and 0.28 µM
CPET, plasma concentration at time of the PET scan [6, 23]: 3.33 µM and 4.50 µM and 4.74 µM and 5.63 µM and 2.71 µM and 4.92 µM
CPET,unbound [6, 23]: 0.13 µM and 0.23 µM and 0.10, 0.10 µM and 0.30 µM
Cmax ([6]; both sexes, human, plasma, po, 300 mg, oral 300 mg, mean ± SD, read-out: Maximum plasma concentration (C max), mean): 4.6 ± 1.3 µM
AUC0-∞ [6, 24]: 68.1 µM·h and 94.0 µM·h and 72.0 µM·h and 102.8 µM·h and 36.6 µM·h and 187.8 µM·h
T1/2, terminal elimination half-life [6, 24]: 14.1 h and 12.5 h and 9.2 h and 11.3 h and 5.4 h and 28.7 h
Tmax [6, 24]: 2 h and 6 h and 4 h
Cmax ([6]; individual subjects, oral 300 mg, read-out: Cmax): 3.51 µM and 5.03 µM and 4.74 µM and 6.43 µM and 2.83 µM and 4.92 µM
plasma concentration at the time of the PET scan ([6]; mean of values at 3 h and 4 h after oral intake of 300 mg): 4.2 ± 1.0 µM
unbound plasma concentration at the time of the PET scan ([6]; mean, oral 300 mg): 0.18 µM
time of C max, median ([6]; oral 300 mg): 5 h
time of C max, range ([6]; oral 300 mg): 2 to 6 h
substrate of BCRP [7]: substrate
effect on [^11C]erlotinib uptake in OATP1B1 overexpressing cells [8]: no effect
IC50 [9]: 30 nM
IC50 [10]: 104 µM
transport by OATP1B1 [11]: not to be transported
transport by OATP1B3 [12]: not to be transported
Michaelis constant (K m) of the saturable component of OATP2B1‐specific uptake [1]: 0.32 µM
effect on [^11C]erlotinib uptake in OATP2B1 overexpressing cells [1]: significantly decreased
effect on [^11C]erlotinib uptake in OATP1B3 overexpressing cells [13]: no effect
substrate of OAT3 [14]: substrate
tolerability, adverse events [15]: well tolerated by all subjects with no occurrence of adverse events
logP [16]: 4.19
substrate of OAT2 [17]: not a substrate
substrate of Pgp [18]: substrate
IC50 [19]: 1190 nM

COc1cc2ncnc(Nc3ccc(F)c(Cl)c3)c2cc1OCCCN1CCOCC1 [gefitinib]
transport by OATP2B1 [20]: transported

CO[C@H]1/C=C/O[C@@]2(C)Oc3c(C)c(O)c4c(O)c(c(/C=N/N5CCN(C)CC5)c(O)c4c3C2=O)NC(=O)/C(C)=C\C=C\[C@H](C)[C@H](O)[C@@H](C)[C@@H](O)[C@@H](C)[C@H](OC(C)=O)[C@@H]1C [rifampicin]
effect on [^11C]erlotinib uptake in OATP2B1 overexpressing cells [1]: significantly decreased

CC(C)c1nc(N(C)S(C)(=O)=O)nc(-c2ccc(F)cc2)c1/C=C/[C@@H](O)C[C@@H](O)CC(=O)O [rosuvastatin]
rate of muscle toxicity [21]: 34%
